Laboratory results reported in paper PMC11187126, “Structure and dynamics of the pyroglutamylated RF-amide peptide QRFP receptor GPR103” (Nature Communications, 2024).
Where two headings read alike, the source gives them in different places. No end group written: not given here.

Target: T1, GPR103 F322^7.43A (Homo sapiens, UniProt Q96P65, F322A)
T1 construct: we used human full-length QRFPR-encoding plasmids; expressed in transfected cells; host or cells: HEK293 cells (HEK293A in the flow cytometry section), pCAGGS vector
T1 sequence (Q96P65 1-431 F322A): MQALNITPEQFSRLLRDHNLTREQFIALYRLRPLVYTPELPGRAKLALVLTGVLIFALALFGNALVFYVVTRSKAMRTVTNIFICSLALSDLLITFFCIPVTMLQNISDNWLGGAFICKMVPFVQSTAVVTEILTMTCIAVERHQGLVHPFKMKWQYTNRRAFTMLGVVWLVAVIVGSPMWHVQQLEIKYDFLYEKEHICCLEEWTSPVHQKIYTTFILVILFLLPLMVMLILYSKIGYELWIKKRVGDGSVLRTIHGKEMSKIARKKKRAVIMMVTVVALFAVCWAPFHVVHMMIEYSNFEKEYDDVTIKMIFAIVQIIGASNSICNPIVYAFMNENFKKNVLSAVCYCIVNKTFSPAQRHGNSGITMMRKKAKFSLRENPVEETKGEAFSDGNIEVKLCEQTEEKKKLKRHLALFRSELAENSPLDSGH
Assay: TGFα shedding assay; Exp. level WT (1:50)
Assay type: cell-based

Emax (Exp. #1): 46.65 % WT
Emax (Exp. #2): 35.03 % WT
Emax (Exp. #3): 42.29 % WT
Emax (mean, read-out: Emax): 41.3%
EC50 (n = 3): 24.5 nM
Emax (n = 3, read-out: Emax): 42.7 ± 2.8%
Substance: TSGPLGNLAEELNGYSRKKGGFSFRF-NH2 [QRFP26]
